Data reported in US9809592B2, “Isopropyl triazolo pyridine compounds” (Eli Lilly and Company, priority 2014, dated 2017).

How the values were obtained:
PPARδ = target: T1, PPARδ (Homo sapiens, UniProt Q03181); assay: Ga14 PPARδ reporter functional assay in CV1 cells; assay type: cell-based; conditions: 24 hours incubation, luciferase
T1 construct: expressed in transfected cells; host or cells: CV1 (African green monkey kidney)
T1 sequence (Q03181 211-439 limits assumed): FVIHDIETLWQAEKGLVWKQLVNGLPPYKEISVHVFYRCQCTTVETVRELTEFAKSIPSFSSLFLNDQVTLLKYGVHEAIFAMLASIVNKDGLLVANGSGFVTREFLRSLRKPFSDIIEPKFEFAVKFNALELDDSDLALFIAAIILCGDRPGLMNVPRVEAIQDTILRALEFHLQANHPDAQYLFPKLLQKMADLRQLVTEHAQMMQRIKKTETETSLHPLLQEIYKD
Text: (§1) Because GPR40 is known to be activated by ligands to PPARγ, exemplified compounds are examined in Ga14 PPARα, Ga14 PPARδ, and PPARγ reporter assays to determine the selectivity of exemplified compounds. CV1 cells, which are derived from the renal tissue of an African green monkey, are transfected with various receptor and reporter plasmids using Fugene. For the Ga14 PPARα and PPARδ assays, a reporter plasmid containing five tandem copies of the yeast transcription protein Ga14 response element, cloned upstream of a firefly luciferase gene driven by the major late promoter of adenovirus, is transfected together with a Simian Virus 40 (SV40) driven plasmid constitutively expressing a hybrid protein containing the Ga14 DNA binding domain (DBD), and either the PPARα or PPARδ ligand binding domain. […] After 24 hours incubation with compounds, cells are lysed and luciferase activity is determined as a measure of receptor activation by luminescence. […] The maximum percent stimulation is determined versus maximum stimulation obtained with 10 μM of an appropriated PPAR agonist reference compound, 2-methyl-2-(4-{2-methyl-3-[2-(phenylcarbonyl)-4-(trifluoromethoxy)phenoxy]propoxy}phenoxy)propanoic acid. […]

Human GPR40 membranes = target: T2, Human GPR40 membranes (Homo sapiens, UniProt O14842); assay: Competition binding kinetics, receptor residence time; conditions: 6-8 nM [3H] TAK875; mean, SEM, n=4; read-out: GPR40 Residence time, τ
T2 construct: expressed in transfected cells; host or cells: HEK293 (membranes)
T2 sequence (O14842 whole entry): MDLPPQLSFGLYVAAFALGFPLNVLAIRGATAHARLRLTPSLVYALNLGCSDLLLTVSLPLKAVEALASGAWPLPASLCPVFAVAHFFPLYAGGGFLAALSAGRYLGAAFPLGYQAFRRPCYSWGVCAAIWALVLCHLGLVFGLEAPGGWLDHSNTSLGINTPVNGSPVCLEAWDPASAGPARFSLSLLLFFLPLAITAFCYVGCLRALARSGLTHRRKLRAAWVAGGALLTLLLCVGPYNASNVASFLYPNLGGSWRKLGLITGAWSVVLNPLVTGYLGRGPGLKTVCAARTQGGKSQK
Method: The association and dissociation rates of unlabeled compounds are quantified using the method described by Motulsky, H. J. and L. C. Mahan (1984), “The kinetics of competitive radioligand binding predicted by the law of mass action” Mol Pharm 25(1): 1-9. Human GPR40 membranes are incubated at various time points with 6-8 nM [^3H] TAK875 in the absence or presence of 1× Ki, 3× Ki, or 10× Ki unlabeled compound. Separation of bound and free radioligand is performed using rapid-wash filtration onto glass fiber filters and counted in a liquid scintillation counter. Rates are calculated by fitting the data to the kinetics of competitive binding model in GraphPad Prism 6, version 6.03 for Windows, GraphPad Software, La Jolla Calif. USA, www.graphpad.com.

hGPR40 [1] = target: T3, hGPR40 (Homo sapiens, UniProt O14842); assay: Human beta-arrestin agonist assay with 1% FBS (hEK293-hFFAR1 cells); assay type: cell-based; design: host or cells: HEK293 (hEK293-hFFAR1); conditions: n=2
Text: (§2) Human embryonic kidney (hEK293)-hFFAR1 cells are purchased from DiscoveRx. Human osteosarcoma (U205) cells expressing mFFAR1 are developed by DiscoveRX. These cells co-express the Prolink (PK)-tagged GPR40 and the Enzyme Acceptor (EA)-tagged beta-arrestin fusion proteins. If activation of the GPR40 stimulates beta-arrestin recruitment, it would force complementation of the beta galactosidase (B-gal) enzyme fragments, forming a B-gal enzyme that generates a chemiluminescent signal using the DiscoveRx PathHunter detection kit. Cells are incubated overnight at 5,000 cells/well in 384 well plates in culture media containing 1% FBS (fetal bovine serum). Serial diluted compounds in DMSO (2× dilutions to generate 20 concentrations) are step down diluted in culture media containing 1% FBS (fetal bovine serum) and added to cells with a final top concentration starting of 100 μM. After addition of compounds, cells are incubated for 90 min at 37° C. in 5% CO2 incubator, and DiscoveRX kit detection reagents are added. Measurement of the chemiluminescent signal is ascertained with the Envision reader, after a 1-hour incubation at room temperature. Data are fit to a 4 parameter-fit logistics to determine EC50 values, % activity is measured versus maximum response to an internal standard GPR40 agonist standard, TAK875, at 1 μM.
Target sequence in this assay (O14842 whole entry, the tested form may be a part): as the sequence (O14842 whole entry) above
Target sequence in this assay (P32121 whole entry partner, the tested form may be a part): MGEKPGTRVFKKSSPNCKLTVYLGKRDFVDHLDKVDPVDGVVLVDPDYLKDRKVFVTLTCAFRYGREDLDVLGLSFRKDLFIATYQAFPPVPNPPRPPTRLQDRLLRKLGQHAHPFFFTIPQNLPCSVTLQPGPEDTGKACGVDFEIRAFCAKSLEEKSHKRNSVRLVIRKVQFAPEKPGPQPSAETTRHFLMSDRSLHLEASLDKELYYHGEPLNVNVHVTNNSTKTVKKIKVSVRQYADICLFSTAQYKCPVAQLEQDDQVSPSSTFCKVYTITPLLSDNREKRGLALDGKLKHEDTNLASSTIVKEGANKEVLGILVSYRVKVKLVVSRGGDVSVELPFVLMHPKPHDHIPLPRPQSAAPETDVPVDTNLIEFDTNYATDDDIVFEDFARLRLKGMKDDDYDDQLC

PPARγ = target: T4, PPARγ (Homo sapiens, UniProt P37231); assay: PPARγ reporter functional assay in CV1 cells; assay type: cell-based; conditions: PPARγ and RXRα, 24 hours incubation, luciferase
T4 construct: expressed in transfected cells; host or cells: CV1 (African green monkey kidney)
T4 sequence (P37231 1-505): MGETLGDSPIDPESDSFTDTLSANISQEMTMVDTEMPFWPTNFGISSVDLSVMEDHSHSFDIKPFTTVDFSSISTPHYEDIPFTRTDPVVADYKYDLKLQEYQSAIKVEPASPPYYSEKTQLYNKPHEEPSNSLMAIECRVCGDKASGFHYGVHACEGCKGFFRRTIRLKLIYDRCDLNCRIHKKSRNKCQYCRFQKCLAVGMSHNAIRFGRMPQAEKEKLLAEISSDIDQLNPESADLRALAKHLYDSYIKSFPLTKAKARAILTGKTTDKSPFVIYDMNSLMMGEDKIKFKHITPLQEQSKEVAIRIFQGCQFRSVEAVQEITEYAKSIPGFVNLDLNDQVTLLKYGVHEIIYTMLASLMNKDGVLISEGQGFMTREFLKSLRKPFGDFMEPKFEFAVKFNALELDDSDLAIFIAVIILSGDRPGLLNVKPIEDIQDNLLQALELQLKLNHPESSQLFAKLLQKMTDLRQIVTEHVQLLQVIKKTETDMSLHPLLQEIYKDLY
T4 sequence (P19793 1-462 partner): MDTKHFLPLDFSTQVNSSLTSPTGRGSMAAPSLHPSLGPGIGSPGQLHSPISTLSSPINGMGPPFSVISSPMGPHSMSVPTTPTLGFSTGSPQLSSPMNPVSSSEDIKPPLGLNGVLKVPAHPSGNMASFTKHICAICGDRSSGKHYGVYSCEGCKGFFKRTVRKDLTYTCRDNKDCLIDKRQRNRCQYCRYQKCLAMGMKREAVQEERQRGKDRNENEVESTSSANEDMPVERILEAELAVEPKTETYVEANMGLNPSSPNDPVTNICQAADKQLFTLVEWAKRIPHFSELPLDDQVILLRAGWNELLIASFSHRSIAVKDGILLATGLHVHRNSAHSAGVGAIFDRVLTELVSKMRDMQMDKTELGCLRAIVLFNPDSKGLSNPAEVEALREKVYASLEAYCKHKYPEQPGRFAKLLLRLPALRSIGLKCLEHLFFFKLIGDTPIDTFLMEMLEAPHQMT
Text: as §1

human GPR40 (hGPR40) = target: T5, human GPR40 (hGPR40) (Homo sapiens, UniProt O14842); assay: Radioligand competition binding assay with [3H]-TAK-875, HEK293 membranes; conditions: 5 nM [3H]-TAK-875; Cheng-Prusoff; mean, SEM
T5 construct: expressed in transfected cells; host or cells: HEK293 (membranes)
T5 sequence (O14842 whole entry): as the sequence (O14842 whole entry) above
Text: Competition curves are plotted as the percent specific inhibition versus concentration of compound and analyzed using a four parameter nonlinear regression fit with variable slope. […] See Cheng, Y. and Prusoff, W. H. (1973) “Relationship between the inhibition constant (Ki) and the concentration of inhibitor which causes 50 percent inhibition (IC50) of an enzymatic reaction”, Biochem Pharmacol 22(23):3099-108.

PPAR = PPAR α, δ, and γ functional assays (overall statement); assay type: cell-based; conditions: PPARα, PPARδ and PPARγ reporter assays; efficacy of <20% is considered negative
Text: as §1

PPARα = target: T6, PPARα (Homo sapiens, UniProt Q07869); assay: Ga14 PPARα reporter functional assay in CV1 cells; assay type: cell-based; conditions: 24 hours incubation, luciferase
T6 construct: expressed in transfected cells; host or cells: CV1 (African green monkey kidney)
T6 sequence (Q07869 239-466 limits assumed): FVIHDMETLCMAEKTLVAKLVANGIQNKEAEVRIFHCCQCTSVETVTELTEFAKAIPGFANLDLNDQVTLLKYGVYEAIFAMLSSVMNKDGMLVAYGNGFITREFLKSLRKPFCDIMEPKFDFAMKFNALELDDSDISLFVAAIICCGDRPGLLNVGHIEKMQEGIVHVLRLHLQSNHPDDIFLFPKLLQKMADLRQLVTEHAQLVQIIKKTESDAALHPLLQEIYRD
Text: as §1

hGPR40 [2] = target: T3, hGPR40; assay: Calcium Flux Primary Assay (FLIPR); assay type: cell-based; design: expressed in transfected cells; host or cells: HEK293; conditions: mean, SEM
Method: HEK293 cells over expressing the human GPR40 cDNA maintained in Dulbecco's modified Eagle's medium with F12 medium in 3:1 ratio supplemented with 10% FBS and 800 μg/ml geneticin at 37° C. and 5% CO2 are employed for the study. Agonist assays are performed using a Calcium 4 Dye assay kit (Molecular Devices) in the presence or absence of 0.1% fatty acid free BSA in the assay buffer (1×HBSS (Hank's Balanced Salt Solution) & 20 mM HEPES (4-(2-hydroxyethyl)-1-piperazineethanesulfonic acid). Receptor activation is measured as an increase in intracellular calcium using the Fluorometric Imaging Plate Reader (FLIPR). Maximum change in fluorescence over the base line is used to determine the agonist response. The EC50 value of the compound is calculated using Excel Fit software (version 4; IDBS) by plotting concentration vs relative fluorescence units (RFUs). […] (Mean±SEM; SEM=standard error of the mean.)
Target sequence in this assay (O14842 whole entry, the tested form may be a part): as the sequence (O14842 whole entry) above

mGPR40 = mGPR40 (Mus musculus, UniProt Q76JU9); assay: Mouse beta-arrestin agonist assay with 1% FBS (U205 cells expressing mFFAR1); assay type: cell-based; conditions: n=3
mGPR40, sequence (Q76JU9 whole entry): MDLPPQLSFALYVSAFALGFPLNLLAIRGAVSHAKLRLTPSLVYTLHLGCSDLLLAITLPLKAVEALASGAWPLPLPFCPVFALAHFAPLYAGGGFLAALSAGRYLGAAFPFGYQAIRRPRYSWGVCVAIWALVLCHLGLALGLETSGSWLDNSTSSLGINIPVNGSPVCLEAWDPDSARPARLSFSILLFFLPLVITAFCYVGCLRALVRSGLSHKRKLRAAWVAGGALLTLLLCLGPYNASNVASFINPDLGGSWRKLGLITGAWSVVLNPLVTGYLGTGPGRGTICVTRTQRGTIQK
mGPR40, sequence (P32121 whole entry partner): as the sequence (P32121 whole entry partner, the tested form may be a part) above
Text: as §2

[3] = versus maximum response to TAK875 at 1 μM

For `CC#C[C@@H](CC(=O)O)c1ccc(OCc2cc(-c3c(C)cc(OC)cc3C)c3nc(C(C)C)nn3c2)cc1` [Example 1, (S)-3-{4-[2-Isopropyl-8-(4-methoxy-2,6-dimethyl-phenyl)-[1,2,4]triazolo[1,5-a]pyridin-6-ylmethoxy]-phenyl}-hex-4-ynoic acid], the EC50 (PPARδ) was 4000 nM, the residence time (Human GPR40 membranes) was 169 min and the EC50 (hGPR40 [1]; 1% FBS, 90 min, mean, SEM, read-out: hGPR40 b-arrestin EC50) was 30.6 nM. For the same molecule, the “% stimulation max (FA), hGPR40 b-arrestin” value (hGPR40 [1]; [3]) was 170%, the EC50 (PPARγ) was 2260 nM and the Ki (human GPR40 (hGPR40)) was 15.8 nM. For the same molecule, the “PPAR activity / efficacy (in words)” value (PPAR) was “weak PPAR activity”, the EC50 (PPARα) was > 10000 nM and the EC50 (hGPR40 [2]; HEK293 cells over expressing human GPR40) was 247 nM. For the same molecule, the efficacy (hGPR40 [2]; maximal response compared to natural ligand linoleic acid) was 78.7%, the EC50 (mGPR40; 1% FBS, 90 min, mean, SEM, read-out: mGPR40 b-arrestin EC50) was 4.87 nM and the “% stimulation max (FA), mGPR40 b-arrestin” value (mGPR40; [3]) was 149%.
